From US5882881A, “Inhibition of cyst formation by cytoskeletal specific drugs” (priority 1998, dated 1999)

How the values were obtained:
Murine CPK Cells = experiment: 3H-thymidine incorporation (DNA synthesis) in CPK cell suspension culture; format: cell-based, mouse; conditions: ± SD, three wells; concentrations as in Table II; control 100 ± 11; 1440 min
Experimental: Growth studies were performed on kidney cells derived from day 10, 21 and 28 postnatal CPK mice and their normal littermates. Immediately after cells were placed in suspension or monolayer culture, 3 μCi of ^3 H-thymidine (^3 H-dThd, specific activity 45 Ci/mmol, Amersham, Ill.) was placed in each well of the culture plate. DNA synthesis was assessed by incorporation of ^3 H-dThd over the 24 hours of culture, and trichloroacetic acid-insoluble. radioactivity was expressed as cpm/μg protein. Protein was assayed with the BCA reagent as described by the manufacturer (Pierce, Rockford, Ill.). At 24 hours of culture, an aliquot (0.2 ml) of the suspension was removed and the number of cysts counted using an inverted microscope. The number of cysts was expressed as a ratio factored for the total number of cells in the suspension at 24 hours of culture. Cyst diameter was measured at 100× using an eyepiece micrometer.
The effects of various metabolic inhibitors on cyst formation were studied in cultures derived from day 21 postnatal CPK mice. […] Taxol (25 μM), a microtubule specific inhibitor, was from Calbiochem (La Jolla, Calif.). All other chemicals were obtained from Sigma Chemical Co. Cytosine arabinoside was added at the final concentration of 20 μg/ml to inhibit DNA synthesis; α-amanitin at 100 ng/ml to inhibit RNA synthesis; cycloheximide at 40 μg/ml to inhibit protein synthesis; amiloride at 1 mM to inhibit the renal epithelial Na^+ -H^+ exchange; ouabain at 0.5 mM to inhibit Na^+ -K^+ -ATPase; brefeldin-A at 10 μg/ml to inhibit transport of surface proteins; griseofulvin at 350 μM to inhibit microtubule function; colchicine at 10 μM to inhibit microtubule polymerization; and cytochalasin-B and cytochalasin-D at 10 μM to depolymerize actin filaments.
In the presence of these metabolic inhibitors in vitro, cyst formation was noted to be either present or absent; if present, the diameters of 20 cysts from a 0.2 ml aliquot were measured. In the same samples, ^3 H-dThd incorporation was also measured as described above. […] After each wash, cell clusters were collected by centrifuging at 200×g for 1 minute and the supernatant discarded. Washed cell clusters were resuspended in the original volume of growth medium without inhibitors, placed in agarose coated wells and incubated at 37° C. in a moisture saturated incubator in 5% CO2 and air.
In this table, the mean cyst size is reported as ±SD with a measurement of twenty cysts. The ^3 H-dThd incorporation is reported as ±SD using measurements of three wells. The * indicates […] versus control. […] The entries listed as "NA" in the table indicate data that is not available.

cpk mice kidney = format: in vivo, mouse; conditions: weekly taxol for 200 days
Experimental: […]. Untreated and methotrexate (MTX) treated polycystic cpk mice all died before 30 days of age. […]. The dotted line starting at day 120 indicates the number and age of apparently healthy taxol treated polycystic mice that were sacrificed for histology studies. Pairs of mice were sacrificed at 120 days, 182 days and 210 days of age.
Eleven homozygous cpk mice, raised and identified as in Example 6 were treated with 15 μl of 10 mg/ml taxol in DMSO through intraperitoneal injection beginning 11-14 days after birth. Following the first treatment, the mice were administered with the same treatment once every week thereafter. As controls, 6 cpk mice were treated with 15 μl intraperitoneal injections of DMSO beginning 10-12 days after birth and then once every week thereafter.

cpk mice = experiment: Growth and survival of cpk mice treated with taxol or methotrexate (FIG. 3B); format: in vivo, mouse
Description: […]. The body weights of untreated, taxol treated and methotrexate treated C57BL/6j mice between day 10 and day 45 after birth is shown in A. The body weights of untreated, taxol treated and methotrexate treated cpk mice are shown in B. Results in each group are the mean of 6 animals. Untreated and methotrexate treated cpk mice died between days 26 and 28. […].
In a related procedure I treated both normal C57BL/6 and cpk mice at 11-14 days of age with either taxol or methotrexate as described above. Six untreated mice served as controls in this experiment.

human ADPKD cells = experiment: In vitro cyst formation in human ADPKD cells; format: cell-based; conditions: human ADPKD cells; cytosine arabinoside 20 μg/ml, α-amanitin 100 ng/ml, cycloheximide 40 μg/ml, amiloride 1 mM, ouabain 0.5 mM, taxol 25 μM, colchicine 10 μM, vinblastine 1 μM, cytochalasins 10 μM
Description: I have substituted human ADPKD cells for the murine CPK cells of Example 1 and produced similar results. Other cyst-forming cells are believed to also form suitable results with only minor deviations from the conditions set forth in Example 1.
Cell suspensions were separated from debris by sedimentation at unit gravity and decantation. After washing once with DMEM/F12 medium, cells were suspended in DMEM/F12 supplemented with 1.2 gm/l sodium bicarbonate, 1× insulin, transferrin and selenium (Sigma # 11184), 1% lipids supplement (Sigma # L4646) and 1× antibiotic/antimycotic (Sigma # A7292) at a density of 5×10^4 cells per ml. Two mls of the cell suspension were aliquoted into each well of a six-well plastic cell culture plates that had been precoated with 2 mls of 1% low melting point agarose in DMEM/F12 and incubated at 37° C. in a humidified atmosphere of 5% CO2 in air.
I used the in vitro cyst formation system of the present invention to analyze compounds that affect the process of cyst formation. To determine the therapeutic effectiveness of an agent, cyst-forming cells are suspended in a medium to which the agent has been added. These cells are then cultured on a solid phase without formation of a layer of cells on the surface, such as in the assay system described in Example 1. The extent to which the cells actually form cysts can be detected and compared to the extent of cyst formation expected if no agent were added. If the amount of cyst formation is lower than expected, then the agent is a good candidate for therapeutic intervention of cystic diseases.

SMILES: CC(=O)O[C@H]1C(=O)[C@@]2(C)[C@H]([C@H](OC(=O)c3ccccc3)[C@]3(O)C[C@H](OC(=O)[C@H](O)[C@@H](NC(=O)c4ccccc4)c4ccccc4)C(C)=C1C3(C)C)[C@]1(OC(C)=O)CO[C@@H]1C[C@@H]2O [Taxol]
- ^3 H-dThd Incorporation (Murine CPK Cells): 90 ± 11 % control
- kidney histology of control mice (cpk mice kidney): normal kidney histology
- average survival (cpk mice; FIG. 3, mean of 6 animals): 45 ± 2 days
- weight gain (in words) (cpk mice; cpk mice, versus DMSO or methotrexate): gained weight at substantially the same or lower rate
- lifespan (in words) (cpk mice; versus DMSO or methotrexate-treated mice): substantially longer lifespans
- cyst formation (in words) (human ADPKD cells): reversibly inhibited in vitro cyst formation in both models
